Experimental data from ChEMBL document CHEMBL1201862, “PubChem BioAssay data set” (2004).
Several values for one entry are separate records, joined by “and”; a condition that tells them apart may be missing. Equal values may be shown once.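 Protocol summary: plate cells (96-well), add compound at 5 concentrations, incubate 48 h, interpolate endpoints linearly. The concentration for 50% growth inhibition is given as GI50.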 Activity calls are given as the source filed them. Rule as the data show it: active = GI50 up to about 1.1 µM and inactive = higher.

Assays:
Assay in all cases: inhibition of tumour cell growth, NCI panel, 48 h
HCC 2998 = test system: HCC 2998
NCI-H226 = test system: NCI-H226
DU-145 = test system: DU-145
SF-268 = test system: SF-268
OVCAR-5 = test system: OVCAR-5
LOX IMVI = test system: LOX IMVI
Malme-3M = test system: Malme-3M
NCI-H23 = test system: NCI-H23
786-0 = test system: 786-0
SF-539 = test system: SF-539
CCRF-CEM = test system: CCRF-CEM
SR = test system: SR
A498 = test system: A498
SF-295 = test system: SF-295
CAKI-1 = test system: CAKI-1
UO-31 = test system: UO-31
SW-620 = test system: SW-620
SK-MEL-28 = test system: SK-MEL-28

Compound | GI50 (HCC 2998) | GI50 (NCI-H226) | GI50 (DU-145) | GI50 (SF-268) | GI50 (OVCAR-5) | GI50 (LOX IMVI) | GI50 (Malme-3M) | GI50 (NCI-H23) | GI50 (786-0) | GI50 (SF-539) | GI50 (CCRF-CEM) | GI50 (SR) | GI50 (A498) | GI50 (SF-295) | GI50 (CAKI-1) | GI50 (UO-31) | GI50 (SW-620) | GI50 (SK-MEL-28)
Cc1ccc(S(=O)(=O)NC(=O)Nc2nnc(S(N)(=O)=O)s2)cc1 | > 100 µM (inactive) | > 100 µM (inactive) | > 100 µM (inactive) | > 100 µM (inactive) | > 100 µM (inactive) | > 100 µM (inactive) | > 100 µM (inactive) | > 100 µM (inactive) | > 100 µM (inactive) | > 100 µM (inactive) | < 0.01 µM (active) | > 100 µM (inactive) | > 100 µM (inactive) | > 100 µM (inactive) | > 100 µM (inactive) | > 100 µM (inactive) | > 100 µM (inactive) | 
N#CC12CNCC1CN=N2 (stereo not given) | > 100 µM (inactive) | > 100 µM (inactive) | > 100 µM (inactive) | > 100 µM (inactive) | > 100 µM (inactive) | > 100 µM (inactive) | > 100 µM (inactive) | > 100 µM (inactive) | > 100 µM (inactive) |  | > 100 µM (inactive) | > 100 µM (inactive) | > 100 µM (inactive) | > 100 µM (inactive) | > 100 µM (inactive) | > 100 µM (inactive) | > 100 µM (inactive) | > 100 µM (inactive)
O=C1OC2C(O)C(=O)OC2C1O (stereo not given) | > 100 µM (inactive) | > 100 µM (inactive) | > 100 µM (inactive) | > 100 µM (inactive) | > 100 µM (inactive) | > 100 µM (inactive) | > 100 µM (inactive) | > 100 µM (inactive) | > 100 µM (inactive) | > 100 µM (inactive) | > 100 µM (inactive) | > 100 µM (inactive) | > 100 µM (inactive) | > 100 µM (inactive) | > 100 µM (inactive) | > 100 µM (inactive) | > 100 µM (inactive) | > 100 µM (inactive)
COc1ccc(C[C@@H]2CN(C(=O)c3ccccc3)[C@H](Cc3ccc(O)cc3)CN2C(=O)c2ccccc2)cc1Br | > 100 µM (inactive) | > 100 µM (inactive) | > 100 µM (inactive) | > 100 µM (inactive) | > 100 µM (inactive) | > 100 µM (inactive) | > 100 µM (inactive) | > 100 µM (inactive) | > 100 µM (inactive) | > 100 µM (inactive) | > 100 µM (inactive) | 88.3 µM (inactive) | > 100 µM (inactive) | > 100 µM (inactive) | > 100 µM (inactive) | > 100 µM (inactive) | > 100 µM (inactive) | > 100 µM (inactive)
COC(=O)CNC(=O)/C=C/[C@H](O[Si](C)(C)C(C)(C)C)[C@H](/C=C/C(=O)NCC(=O)OC)O[Si](C)(C)C(C)(C)C | > 25 µM (inactive) | > 25 µM (inactive) | > 25 µM (inactive) | > 25 µM (inactive) | > 25 µM (inactive) | > 25 µM (inactive) | > 25 µM (inactive) | > 25 µM (inactive) | > 25 µM (inactive) | > 25 µM (inactive) | > 25 µM (inactive) | > 25 µM (inactive) | > 25 µM (inactive) | > 25 µM (inactive) | > 25 µM (inactive) | > 25 µM (inactive) | > 25 µM (inactive) | > 25 µM (inactive)
CC1=CC(c2ccccc2)OP1(=O)c1ccccc1 (stereo not given) | > 100 µM (inactive) | > 100 µM (inactive) | > 100 µM (inactive) | > 100 µM (inactive) | > 100 µM (inactive) | > 100 µM (inactive) | > 100 µM (inactive) | > 100 µM (inactive) | > 100 µM (inactive) | > 100 µM (inactive) |  | > 100 µM (inactive) | > 100 µM (inactive) | > 100 µM (inactive) | > 100 µM (inactive) |  | > 100 µM (inactive) | > 100 µM (inactive)
CNC1(C(=O)O)CC1 | > 100 µM (inactive) | > 100 µM (inactive) | > 100 µM (inactive) | > 100 µM (inactive) | > 100 µM (inactive) | > 100 µM (inactive) | > 100 µM (inactive) | > 100 µM (inactive) | > 100 µM (inactive) | > 100 µM (inactive) | > 100 µM (inactive) | > 100 µM (inactive) | > 100 µM (inactive) | > 100 µM (inactive) |  |  | > 100 µM (inactive) | > 100 µM (inactive)
Cc1cc(C)nc(NS(=O)(=O)c2ccc(Nc3nncc(=O)n3N)cc2)n1 | 30.5 µM (inactive) |  | 34.3 µM (inactive) | 20.1 µM (inactive) | 18.2 µM (inactive) | 14.2 µM (inactive) | 19.2 µM (inactive) | 14.4 µM (inactive) | 15.8 µM (inactive) | 31.6 µM (inactive) | 3.62 µM (inactive) | 16.8 µM (inactive) | 45.9 µM (inactive) | 31.6 µM (inactive) | 16 µM (inactive) | 19.3 µM (inactive) | 16.2 µM (inactive) | 26.5 µM (inactive)
O=c1[nH]c2ccc(C(F)(F)F)cc2nc1C(F)(F)F | 43.4 µM (inactive) | 18.8 µM (inactive) | 23.2 µM (inactive) | 30.8 µM (inactive) | 35.6 µM (inactive) | 20.7 µM (inactive) | 21.2 µM (inactive) | 18.1 µM (inactive) | 35.2 µM (inactive) | 21.3 µM (inactive) | 11.1 µM (inactive) | 39.4 µM (inactive) | 25.7 µM (inactive) | 28.7 µM (inactive) | 30.3 µM (inactive) | 20.7 µM (inactive) |  | 28.8 µM (inactive)
C=C(CO)[C@H]1Oc2ccc(C(C)=O)cc2[C@@H]1O | > 100 µM (inactive) | > 100 µM (inactive) | > 100 µM (inactive) | > 100 µM (inactive) | > 100 µM (inactive) | > 100 µM (inactive) | 53.3 µM (inactive) | > 100 µM (inactive) | > 100 µM (inactive) | > 100 µM (inactive) | > 100 µM (inactive) | > 100 µM (inactive) | > 100 µM (inactive) | > 100 µM (inactive) | > 100 µM (inactive) | > 100 µM (inactive) | > 100 µM (inactive) | > 100 µM (inactive)
CC(=O)OC(/C=C/c1ccccc1)P1(=O)N(CC(C)(C)C)[C@@H]2CCCC[C@H]2N1CC(C)(C)C (stereo not given in full) | 5 µM (inactive) and 2.77 µM (inactive) | 6.87 µM (inactive) and 10.9 µM (inactive) | 10.4 µM (inactive) and 9.75 µM (inactive) | 10.9 µM (inactive) and 8.45 µM (inactive) | 10.7 µM (inactive) and 9.86 µM (inactive) | 11.2 µM (inactive) and 9.42 µM (inactive) | 12.3 µM (inactive) and 13.1 µM (inactive) | 7.05 µM (inactive) and 5.18 µM (inactive) | 9.62 µM (inactive) and 7.38 µM (inactive) | 8.11 µM (inactive) and 13.6 µM (inactive) | 4.81 µM (inactive) and 4.38 µM (inactive) | 2.92 µM (inactive) and 4.02 µM (inactive) | 8.28 µM (inactive) | 5.87 µM (inactive) and 3.86 µM (inactive) | 12.8 µM (inactive) and 8.99 µM (inactive) | 7.18 µM (inactive) and 4.19 µM (inactive) | 9.62 µM (inactive) and 5.27 µM (inactive) | 17.7 µM (inactive) and 13.5 µM (inactive)
O=C1CSC2(CC(/C=C/c3ccccc3O)=NN2c2cccc(S(=O)(=O)O)c2)N1c1nc2ccccc2s1 (stereo not given) | 21.9 µM (inactive) | 22.2 µM (inactive) | 30.5 µM (inactive) | 45 µM (inactive) | 26.9 µM (inactive) | 17.3 µM (inactive) | 41.9 µM (inactive) | 22.1 µM (inactive) | 31.6 µM (inactive) | 16.3 µM (inactive) | 14.6 µM (inactive) | 18.4 µM (inactive) | 42.9 µM (inactive) |  | 28.3 µM (inactive) | 28.7 µM (inactive) | 37.3 µM (inactive) | 56.5 µM (inactive)
O=C1CC[C@@]2(O)[C@H]3Cc4ccc(-c5ccccc5)c5c4[C@@]2(CCN3CC2CC2)[C@H]1O5 | 18.4 µM (inactive) | 20.3 µM (inactive) | 23.3 µM (inactive) | 14.3 µM (inactive) | 17.2 µM (inactive) | 16 µM (inactive) | 15.5 µM (inactive) | 24.1 µM (inactive) | 15.8 µM (inactive) | 16.8 µM (inactive) | 24.4 µM (inactive) | 25.9 µM (inactive) | 18.1 µM (inactive) | 19.2 µM (inactive) | 18.3 µM (inactive) | 16.1 µM (inactive) | 10.3 µM (inactive) | 42.4 µM (inactive)
CC(=O)OC1C[C@@H](C)C2(C[C@H](O)c3ccoc3)C(=O)OC[C@]13C2CCC(O)C31CO1 (stereo not given in full) | > 100 µM (inactive) | > 100 µM (inactive) | > 100 µM (inactive) | > 100 µM (inactive) | > 100 µM (inactive) | > 100 µM (inactive) | > 100 µM (inactive) | > 100 µM (inactive) | > 100 µM (inactive) | > 100 µM (inactive) | > 100 µM (inactive) | > 100 µM (inactive) | > 100 µM (inactive) | > 100 µM (inactive) | > 100 µM (inactive) | > 100 µM (inactive) |  | > 100 µM (inactive)
CC(=O)c1csc2c1C(=O)c1ccccc1C2=O | 1.75 µM (inactive) | 1.58 µM (inactive) | 1.67 µM (inactive) | 2.78 µM (inactive) | 2.35 µM (inactive) | 2.36 µM (inactive) | 0.483 µM (active) | 1.26 µM (inactive) | 2.07 µM (inactive) | 2.08 µM (inactive) | 1.56 µM (inactive) | 3.66 µM (inactive) | 46.7 µM (inactive) | 1.55 µM (inactive) | 3.99 µM (inactive) | 2.64 µM (inactive) | 2.2 µM (inactive) | 1.92 µM (inactive)
